The values below come from patent US20060058320A1, “[1,2,4] Triazolo[1,5-c]pyrimidine derivatives” (KYOWA HAKKO KOGYO CO., LTD., priority 2002, published 2006).

In data set [1] the target is T1, adenosine A2A receptor (Rattus norvegicus, UniProt P30543).
T1 construct: from tissue; host or cells: rat corpus striatum membrane preparation
Description: Adenosine A2A receptor binding test (3H-CGS 21680 binding). The following applies: test compound 10^−7 mol/L, 3H-CGS 21680 binding, rat corpus striatum; for inhibition at 0.1 µM: read-out: A2A Receptor inhibition rate (%) at 10^−7 mol/L. How it is done: The test was carried out according to the method of Bruns et al. [Molecular Pharmacology, vol. 29, p.
Rat corpus striatum was suspended in an ice-cold 50 mmol/L tris(hydroxymethyl)aminomethane hydrochloride (referred to as “Tris HCl” hereinafter) buffer (pH 7.7) using a Polytron homogenizer (produced by Kinematica Co.). The suspension was centrifuged (50,000×g, 10 minutes), and the resulting precipitate was again suspended in the same amount of a 50 mmol/L Tris HCl buffer, followed by centrifugation under the same conditions. The resulting finalprecipitate was again suspended in a 50 mmol/L-Tris HCl buffer [containing 10 mmol/L of magnesium chloride and 0.02 unit/mg tissue of adenosine deaminase (produced by Sigma Co.)] so that the tissue concentration was 5 mg (wet weight)/mL.
The radioactivity on the filter was determined with a liquid scintillation counter (produced by Packard Instrument Co.).
In the equation, X represents Amount of binding in the presence of a medicament, Y represents Amount of nonspecific binding, and Z represents Amount of total binding.

Structures can show the parent of a compound that is named as a salt.

In general, melting point refers to the temperature of the solid-liquid transition.

T1 sequence (P30543 whole entry): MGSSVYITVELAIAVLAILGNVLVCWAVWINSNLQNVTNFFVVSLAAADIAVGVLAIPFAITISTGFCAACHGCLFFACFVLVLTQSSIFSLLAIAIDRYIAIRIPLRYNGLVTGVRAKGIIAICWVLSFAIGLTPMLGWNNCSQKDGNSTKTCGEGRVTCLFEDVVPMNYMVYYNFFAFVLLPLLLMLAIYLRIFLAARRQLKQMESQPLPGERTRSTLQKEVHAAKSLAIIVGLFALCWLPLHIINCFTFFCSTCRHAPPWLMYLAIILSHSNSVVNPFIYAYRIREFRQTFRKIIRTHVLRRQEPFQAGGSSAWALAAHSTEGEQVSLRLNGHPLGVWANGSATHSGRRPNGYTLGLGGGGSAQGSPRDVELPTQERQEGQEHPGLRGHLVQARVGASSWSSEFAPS

As to “5-Amino-2-(2-furyl)-7-(2-phenylthienyl)[1,2,4]triazolo[1,5-c]pyrimidine [Compound 65]”, the “A2A Receptor inhibition rate (%) at 10^−7 mol/L” value in data set [1] is 96%.

`COc1ccc(CNCc2ccccc2-c2cc3nc(-c4ccco4)nn3c(N)n2)cc1OC` [Compound 3, 5-Amino-7-[2-(3,4-dimethoxybenzylaminomethyl)phenyl]-2-(2-furyl) [1,2,4]triazolo[1,5-c]pyrimidine] showed a melting point of 168 to 168.7 °C.

`Nc1nc(-c2ccccc2CNCCc2ccccn2)cc2nc(-c3ccco3)nn12` [Compound 4, 5-Amino-2-(2-furyl)-7-{2-[2-(2-pyridyl)ethylaminomethyl]-phenyl}[1,2,4]triazolo[1,5-c]pyrimidine] gave a melting point of 179.2 to 180 °C. Consider `CC(=O)NCCNCc1ccccc1-c1cc2nc(-c3ccco3)nn2c(N)n1` [Compound 7, 5-Amino-7-{2-[2-(N-acetylamino)ethylaminomethyl]phenyl}-2-(2-furyl)[1,2,4]triazolo[1,5-c]pyrimidine monohydrochloride], for which the inhibition at 0.1 µM in data set [1] was 64%.

For `Nc1nc(-c2ccc(C=O)cc2)cc2nc(-c3ccco3)nn12` [Compound 10, 5-Amino-7-(4-formylphenyl)-2-(2-furyl)[1,2,4]triazolo[1,5-c]pyrimidine], the melting point fell in the range of 273.5 to 274 °C. `CC(=O)NCCNCc1ccc(-c2cc3nc(-c4ccco4)nn3c(N)n2)cc1` [Compound 16, 7-{4-[2-(N-acetylamino)ethylaminomethyl]phenyl}-5-amino-2-(2-furyl)[1,2,4]triazolo[1,5-c]pyrimidine monohydrochloride]: in data set [1], the inhibition at 0.1 µM was found to be 36%.

As for `COc1cc(CNCc2ccc(-c3cc4nc(-c5ccco5)nn4c(N)n3)cc2)cc(OC)c1` [Compound 17, 5-Amino-7-[4-(3,5-dimethoxybenzylaminomethyl)phenyl]-2-(2-furyl)[1,2,4]triazolo[1,5-c]pyrimidine monohydrochloride], in data set [1], the inhibition at 0.1 µM was determined as 70%. As for `Nc1nc(-c2cccc(C=O)c2)cc2nc(-c3ccco3)nn12` [Compound 18, 5-Amino-7-(3-formylphenyl)-2-(2-furyl)[1,2,4]triazolo[1,5-c]pyrimidine], the melting point fell in the range of 212.8 to 213.2 °C. `Nc1nc(-c2cccc(CNCCc3ccccn3)c2)cc2nc(-c3ccco3)nn12` [Compound 19, 5-Amino-2-(2-furyl)-7-{3-[2-(2-pyridyl)ethylaminomethyl]-phenyl}[1,2,4]triazolo[1,5-c]pyrimidine]: the melting point lay in the range of 159.2 to 159.4 °C.

Regarding `COCc1cc2nc(-c3ccco3)nn2c(N)n1` [Compound 23, 5-Amino-2-(2-furyl)-7-methoxymethyl[1,2,4]triazolo[1,5-c]pyrimidine], the melting point lay within 167.2 to 167.6 °C. Same read-out and setting: the result for `CCOCc1cc2nc(-c3ccco3)nn2c(N)n1` [Compound 24, 5-Amino-7-ethoxymethyl-2-(2-furyl) [1,2,4]triazolo[1,5-c]pyrimidine] reads 153.8 to 154.6 °C. For the compound `COC(C)(C)c1cc2nc(-c3ccco3)nn2c(N)n1` [Compound 25, 5-Amino-2-(2-furyl)-7-(1-methyl-1-methoxyethyl)[1,2,4]-triazolo[1,5-c]pyrimidine], in data set [1], the inhibition at 0.1 µM turned out to be 47%. Compound `Nc1nc(COc2ccccc2F)cc2nc(-c3ccco3)nn12` [Compound 30, 5-Amino-7-(2-fluorophenoxymethyl)-2-(2-furyl) [1,2,4]-triazolo[1,5-c]pyrimidine] registered a melting point of 196.8 to 197.1 °C. Take `Nc1nc(COc2cccnc2)cc2nc(-c3ccco3)nn12` [Compound 31, 5-Amino-2-(2-furyl)-7-(pyridin-3-yloxymethyl)[1,2,4]triazolo[1,5-c]pyrimidine]: the melting point was 253.5 to 254 °C. Same read-out and setting: the result for `Nc1nc(COc2ccccn2)cc2nc(-c3ccco3)nn12` [Compound 32, 5-Amino-2-(2-furyl)-7-(pyridin-2-yloxymethyl)[1,2,4]-triazolo[1,5-c]pyrimidine] reads 229 to 229.2 °C; that for `Nc1nc(COc2ccncc2)cc2nc(-c3ccco3)nn12` [Compound 33, 5-Amino-2-(2-furyl)-7-(pyridin-4-yloxymethyl)[1,2,4]-triazolo[1,5-c]pyrimidine], more than 300 °C. Same read-out and setting: the result for `COc1ccc(CN(Cc2cc3nc(-c4ccco4)nn3c(N)n2)C(C)=O)cc1OC` [Compound 34, 7-[(N-acetyl-3,4-dimethoxybenzylamino)methyl]-5-amino-2-(2-furyl)[1,2,4]triazolo[1,5-c]pyrimidine] reads 136 to 136.5 °C; that for `Nc1nc(CNc2ccccc2)cc2nc(-c3ccco3)nn12` [Compound 36, 5-Amino-7-anilinomethyl-2-(2-furyl)[1,2,4]triazolo[1,5-c]-pyrimidine], 279.2 to 279.6 °C. The compound `Nc1nc(Cn2ccccc2=O)cc2nc(-c3ccco3)nn12` [Compound 37, 5-Amino-2-(2-furyl)-7-(2-oxopyridin-1-ylmethyl)[1,2,4]-triazolo[1,5-c]pyrimidine] displayed a melting point of 239.2 to 239.6 °C. In the case of `COc1ccc(CNCc2cc3nc(-c4ccco4)nn3c(N)n2)cc1OC` [Compound 42, 5-Amino-7-(3,4-dimethoxybenzylaminomethyl)-2-(2-furyl)-[1,2,4]triazolo[1,5-c]pyrimidine dihydrochloride], the inhibition at 0.1 µM in data set [1] came to 62%. In the case of `COc1cc(CNCc2cc3nc(-c4ccco4)nn3c(N)n2)cc(OC)c1` [Compound 43, 5-Amino-7-[(3,5-dimethoxybenzylamino)methyl]-2-(2-furyl)-[1,2,4]triazolo[1,5-c]pyrimidine dihydrochloride], the inhibition at 0.1 µM in data set [1] is 60%. Still for that read-out and setting: the same measure for `Nc1nc(CNCCc2ccccn2)cc2nc(-c3ccco3)nn12` [Compound 44, 5-Amino-7-[2-(2-pyridyl)ethylaminomethyl]-2-(2-furyl)-[1,2,4]triazolo[1,5-c]pyrimidine dihydrochloride]: 56%. As to `CC(=O)NCCNCc1cc2nc(-c3ccco3)nn2c(N)n1` [Compound 45, 5-Amino-7-[2-(N-acetylamino)ethylaminomethyl]-2-(2-furyl)-[1,2,4]triazolo[1,5-c]pyrimidine], the melting point was in the range of 190.5 to 190.9 °C. For the compound `Nc1nc(CN2CCN(CC3CC3)CC2)cc2nc(-c3ccco3)nn12` [Compound 50, 5-Amino-7-[4-(cyclopropylmethyl)piperazin-1-ylmethyl]-2-(2-furyl)[1,2,4]triazolo[1,5-c]pyrimidine dihydrochloride], the inhibition at 0.1 µM in data set [1] was determined as 65%.

In turn, `Nc1nc(-c2ccncc2)cc2nc(-c3ccco3)nn12` [Compound 54, 5-Amino-2-(2-furyl)-7-(4-pyridyl)[1,2,4]triazolo[1,5-c]-pyrimidine] came in with a melting point of 279.2 to 279.9 °C. As for `Nc1nc(-c2cncnc2)cc2nc(-c3ccco3)nn12` [Compound 56, 5-Amino-2-(2-furyl)-7-(5-pyrimidinyl)[1,2,4]triazolo[1,5-c]-pyrimidine], the melting point is 271 °C (dec.). `Cc1noc(C)c1-c1cc2nc(-c3ccco3)nn2c(N)n1` [Compound 57, 5-Amino-7-(3,5-dimethylisoxazol-4-yl)-2-(2-furyl)[1,2,4]-triazolo[1,5-c]pyrimidine]: the melting point fell in the range of 227.8 to 228.5 °C. Regarding `Nc1nc(-c2csc(NCCN3CCOCC3)n2)cc2nc(-c3ccco3)nn12` [Compound 59, 5-Amino-2-(2-furyl)-7-[2-(2-morpholinoethylamino)thiazol-4-yl][1,2,4]triazolo[1,5-c]pyrimidine], the melting point was 274.7 to 275 °C (dec.). As for `Nc1nc(-c2ccc(CO)cc2)cc2nc(-c3ccco3)nn12` [Compound 61, 5-Amino-2-(2-furyl)-7-(4-hydroxymethylphenyl)[1,2,4]-triazolo[1,5-c]pyrimidine], the melting point is 239.6 to 239.9 °C. For `Nc1nc(/C=C/CNCC2CC2)cc2nc(-c3ccco3)nn12` [Compound 68, 5-Amino-7-[3-(cyclopropylmethylamino)-(E)-propan-1-en-1-yl]-2-(2-furyl)[1,2,4]triazolo[1,5-c]pyrimidine], the inhibition at 0.1 µM in data set [1] was found to be 96%. In turn, `Nc1nc(C(=O)NCc2ccc(F)c(F)c2)cc2nc(-c3ccco3)nn12` [Compound 82, 5-Amino-2-(2-furyl)[1,2,4]triazolo[1,5-c]pyrimidine-7-carboxylic acid (3,4-difluorobenzyl)amide] returned a melting point of 254.5 to 254.9 °C. Turning to `COCCN(CCOC)C(=O)c1cc2nc(-c3ccco3)nn2c(N)n1` [Compound 88, 5-Amino-2-(2-furyl)[1,2,4]triazolo[1,5-c]pyrimidine-7-carboxylic acid [N,N-bis(2-methoxyethyl)]amide], the melting point lay within 190.5 to 190.8 °C. In turn, `Nc1nc(C(=O)NCCCn2ccnc2)cc2nc(-c3ccco3)nn12` [Compound 90, 5-Amino-2-(2-furyl)[1,2,4]triazolo[1,5-c]pyrimidine-7-carboxylic acid [3-(1-imidazolyl)propyl]amide] had a melting point of 198.5 to 198.8 °C. Consider `CCNC(=O)c1cc2nc(-c3ccco3)nn2c(N)n1` [Compound 98, 5-Amino-2-(2-furyl)[1,2,4]triazolo[1,5-c]pyrimidine-7-carboxylic acid ethylamide], for which the melting point lay within 178.5 to 178.9 °C.
